Calls of active or inactive are those of the source. The rule behind the calls is not given here.
Assays:
[1] = biological target: T1, Peroxisome proliferator-activated receptor alpha (Homo sapiens, UniProt Q07869); experiment: (§1) Agonist activity at human PPARalpha by GAL4 transactivation assay; format: functional
T1 sequence (Q07869 whole entry): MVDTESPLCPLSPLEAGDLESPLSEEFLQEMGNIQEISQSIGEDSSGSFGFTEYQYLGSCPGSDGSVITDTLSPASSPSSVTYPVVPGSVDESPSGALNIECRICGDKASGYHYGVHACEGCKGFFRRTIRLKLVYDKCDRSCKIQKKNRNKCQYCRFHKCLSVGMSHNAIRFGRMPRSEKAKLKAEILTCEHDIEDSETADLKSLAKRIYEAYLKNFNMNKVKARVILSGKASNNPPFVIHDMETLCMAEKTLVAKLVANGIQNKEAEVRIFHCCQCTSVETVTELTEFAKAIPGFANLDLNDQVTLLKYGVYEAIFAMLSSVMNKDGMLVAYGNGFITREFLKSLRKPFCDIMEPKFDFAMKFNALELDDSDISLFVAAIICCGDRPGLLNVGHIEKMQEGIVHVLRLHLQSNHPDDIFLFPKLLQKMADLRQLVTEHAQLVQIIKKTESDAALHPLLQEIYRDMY

[2] = biological target: T2, Peroxisome proliferator-activated receptor gamma (Homo sapiens, UniProt P37231)
T2 sequence (P37231 whole entry): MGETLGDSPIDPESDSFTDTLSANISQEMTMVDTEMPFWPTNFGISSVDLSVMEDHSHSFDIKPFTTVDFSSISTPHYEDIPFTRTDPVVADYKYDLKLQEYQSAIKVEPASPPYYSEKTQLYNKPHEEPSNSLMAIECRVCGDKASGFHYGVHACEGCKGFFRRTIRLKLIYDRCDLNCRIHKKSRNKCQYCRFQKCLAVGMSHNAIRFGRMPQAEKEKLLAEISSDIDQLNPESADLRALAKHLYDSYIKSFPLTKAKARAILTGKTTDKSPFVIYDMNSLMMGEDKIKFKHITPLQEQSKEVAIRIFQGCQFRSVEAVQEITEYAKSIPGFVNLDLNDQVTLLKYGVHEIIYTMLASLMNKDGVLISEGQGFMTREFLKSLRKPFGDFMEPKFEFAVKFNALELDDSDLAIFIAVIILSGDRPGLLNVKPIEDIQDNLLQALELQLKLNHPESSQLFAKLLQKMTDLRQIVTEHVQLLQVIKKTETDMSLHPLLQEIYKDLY

[3] = biological target: T3, Peroxisome proliferator-activated receptor alpha (Homo sapiens) (UniProt Q07869); experiment: as §1; format: functional
T3 sequence (whole entry): T1 sequence (Q07869 whole entry)

## CCOC(=O)C(Cc1ccc(OCCN2CCC(C)(C)c3cc(/C(=N\O)c4ccccc4)ccc32)cc1)OCC (stereo not drawn)
[1]
  EC50: 0.189 µM
[2]
  Ki: 0.618 µM

## CCO[C@@H](Cc1ccc(OCCc2ccc(OS(C)(=O)=O)cc2)cc1)C(=O)O [TESAGLITAZAR]
[1]
  EC50: 0.414 µM
[2]
  Ki: 0.018 µM

## COC(=O)C(Cc1ccc(OCCN2CCC(C)(C)c3cc(/C(=N\O)c4ccccc4)ccc32)cc1)C(=O)OC
[3]
  Activity: inactive
[2]
  Ki: 10 µM

## COC(=O)C(Cc1ccc(OCCN2CCC(C)(C)c3cc(C(=O)c4ccccc4)ccc32)cc1)C(=O)OC
[3]
  Activity: inactive
[2]
  Ki: 10 µM
